# Several values for one entry are separate records, joined by “and”; a condition that tells them apart may be missing. Identical values can stand only once. Like-named read-outs stand apart in the source and are kept apart here.
# Experiments:
# [1] = Preliminary acute toxicity test in mice; type: in vivo; conditions: groups of two male NMRI mice
# Procedure: A preliminary acute toxicity test was carried out in mice. Groups of two male mice of the NMRI strain weighing 20-21 g received the test compound in doses of 62.5-500 mg/kg ip. The compound was given as a solution in 0.9% NaCl. The number of animals dead 24 hours after injection was as follows.
# [2] = Acid stability test in 0.1 N HCl (t.l.c. estimate of decomposition products); type: physicochemical; conditions: incubated in 0.1 N HCl at 37° C. for 2 hours; 100 μg compound applied
# Procedure: The acid stability was investigated by dissolving 5 mg of each compound in 1 ml of 0.1 N HCl in a test tube. For use as references 0.2 ml of each solution was withdrawn, immediately treated with 0.2 ml of a 10% aqueous solution of NaHCO3 and frozen. The remaining 0.8 ml of each solution was incubated at 37° C. for 2 hours. After incubation, 0.8 ml of a 10% aqueous solution of NaHCO3 was added to each solution and the solutions were frozen. The incubated compounds and the reference compounds were lyophilized to dryness and redissolved in distilled H2 O, 0.2 ml and 1.0 ml respectively, for each reference solution and incubated solution. The solutions were applied to silica gel (Merck PF254, 20×20 cm) and polyethylene imine (Macherey-Nagel PEI, 20×20 cm) thin layer plates. A total of 20 μl of the reference solutions (100 μg compound) and 25 μl of the incubated solutions ([…]) were applied. To each plate was also added, as references, solutions of phosphorous acid (H2 HPO3) (5 and 20 μg) and of trisodiumphosphonoformate (5 and 20 μg). (Decomposition of phosphonoformic acid at low pH produces phosphorous acid).
# The silica gel plates were prepared in duplicate and eluted with a solution composed of methanol--10% aq ammonia--trichloroacetic acid--water (50--15--5--3, v/v) and the polyethylene imine plates were eluted with a 1M aq lithium chloride solution. […]
# [3] = tested on: influenza (WSN Wilson Smith Neurotropic type A); assay: Inhibition of influenza WSN plaque on MDCK monolayers; type: cell-based, influenza virus
# [4] = tested on: cutaneous herpes simplex type 1 infections; assay: Inhibition of cutaneous herpes on guinea pigs; type: in vivo, guinea pig; conditions: scale 0 to 3
# Text: The effect of cutaneous herpes simplex type 1 infections have been measured in a guinea pig model described by Hubler et al. J. Invest Dermatol 69 (1974) 92. […] The appearance of an infected treated area and a similar infected untreated (only isopropanol-glycerol-water) area was scored daily on a scale from 0 to 3. The total effect is judged from the score at day 5.
# [5] = tested on: herpes simplex type 1; assay: Plaque reduction assay for herpes simplex type 1 on GMK monolayers; type: cell-based; conditions: for inhibition at 400 µM: Human alphaherpesvirus 1, 400 μM test compound; for inhibition at 500 µM: Human alphaherpesvirus 1, 500 μM test compound
# Procedure: The plaque reduction assay for herpes simplex type 1 was performed on GMK (Green Monkey Kidney) cells as described by Ejereito et al. J. Gen. Virol. 2 (1968) 357. Monolayers on 5 cm petri dishes were used and after virus adsorption the test compound was added in the medium.
# The plaque reduction assay for herpes simplex type 1 was performed on GMK (Green Monkey Kidney) cells as described by Ejereito et al. J. Gen. Virol 2 (1968) 357. Monolayers on 5 cm petri dishes were used and after virus adsorption the test compound was added in the medium.
# Inhibition of herpes simplex type 1 plaque on GMK monolayers
# [6] = tested on: influenza Victoria; assay: Inhibition of influenza Victoria plaque on MDCK monolayers; type: cell-based, influenza virus
# [7] = topical 2% solution, start of treatment 24 hours after infection
# [8] = treated in 0.1% Tween 80-10% aqueous glycerol
# [9] = topical 2% solution in isopropanol-glycerol-water twice daily for 3 days starting 4 hours after infection
# [10] = treated in 0.1% Tween 80-10% aqueous glycerol, start of treatment 24 hours after infection
# [11] = Day 1, 10 μmol intraperitoneally, urine of two NMRI male mice
# [12] = Day 2, 10 μmol intraperitoneally, urine of two NMRI male mice
# [13] = Day 3, 10 μmol intraperitoneally, urine of two NMRI male mice
smiles,measurement,setting,value
O=C(Oc1ccccc1)P(=O)(O)Oc1ccccc1,number of animals dead 24 hours after injection,[1]; 62.5 mg/kg ip,0/2
same,number of animals dead 24 hours after injection,[1]; 125 mg/kg ip,0/2
same,number of animals dead 24 hours after injection,[1]; 250 mg/kg ip,0/2
same,number of animals dead 24 hours after injection,[1]; 500 mg/kg ip,0/2
"O=C(O)P(=O)(O)O [EHB 776, trisodium phosphonoformate]",Estimated formation of phosphorous acid,[2],20 µg
"O=C(Oc1ccccc1)P(=O)(Oc1ccccc1)Oc1ccccc1 [VIS 040, Hydroxycarbonylphosphonic Acid Triphenyl Ester]",Inhibition (%),[3]; 100 μM test compound,90%
same,Inhibition (%),[3]; 500 μM test compound,> 99%
same,"Score at day 5, treated",[4]; [7],0
"O=C(O)P(=O)(O)Oc1ccccc1 [VIS 041, Phenyl disodium oxycarbonylphosphonate]",Inhibition (%),[5]; 10 μM test compound,~ 50%
same,Inhibition (%),[5]; 40 μM test compound,> 90%
same,Inhibition (%),"[5]; 100 μM test compound, 100 µM",> 99.9% and 99%
same,Inhibition (%),[5]; 500 μM test compound,> 99.9%
same,Inhibition (%),[3]; 500 μM test compound,> 99.9%
same,"Score at day 5, treated",[4]; [7],0
"O=C(Oc1ccccc1)P(=O)([O-])Oc1ccccc1.[Na+] [VIS 043, Sodium phenyl phenoxycarbonylphosphonate]",Inhibition (%),[5]; 20 μM test compound,~ 0%
same,Inhibition (%),[5]; 40 μM test compound,> 90.9%
same,Inhibition (%),"[5]; 100 μM test compound, 100 µM",> 99.9% and > 99%
same,Inhibition (%),[5]; 500 μM test compound,> 99.9%
same,Inhibition (%),"[3]; 20 μM test compound, 20 µM",62% and 47%
same,Inhibition (%),"[3]; 100 μM test compound, 100 µM",84% and 90% and > 99.9%
same,Inhibition (%),[3]; 500 μM test compound,> 99.9%
same,"Score at day 5, treated",[4]; [7],0
"Cc1ccc(OP(=O)(Oc2ccc(C)cc2)C(=O)Oc2ccccc2)cc1 [VIS 056, Di-p-tolyl phenoxycarbonylphosphonate]",Inhibition (%),[5]; 100 μM test compound,> 99%
same,Inhibition (%),[5]; 500 μM test compound,> 99%
same,Inhibition (%),[6]; 200 μM test compound,75%
"COc1ccc(OP(=O)([O-])C(=O)Oc2ccccc2)cc1.[Na+] [VIS 058, Sodium p-methoxyphenyl phenoxycarbonylphosphonate]",Inhibition (%),[5]; 10 μM test compound,~ 50%
same,Inhibition (%),[5]; 40 μM test compound,> 90%
same,Inhibition (%),[5]; 100 μM test compound,88%
same,Inhibition (%),[5]; 500 μM test compound,> 99.9%
same,Inhibition (%),[3]; 100 μM test compound,84%
same,Inhibition (%),[3]; 500 μM test compound,> 99.9%
"Cc1ccc(OP(=O)(O)C(=O)O)cc1 [VIS 059, p-tolyl disodium oxycarbonylphosphonate]",Inhibition (%),"[5]; 5 μM test compound, 5 µM",57% and > 90%
same,Inhibition (%),[5]; 20 μM test compound,95%
same,Inhibition (%),[5]; 100 μM test compound,> 99.9%
same,Inhibition (%),[5]; 500 μM test compound,> 99.9%
same,Inhibition (%),"[3]; 20 μM test compound, 20 µM",58% and 36%
same,Inhibition (%),"[3]; 500 μM test compound, 500 µM",> 99.9% and 91% and 92%
same,"Score at day 5, treated",[4]; [8],1 and 2
"O=C(Oc1ccccc1)P(=O)([O-])Oc1ccc(Cl)cc1.[Na+] [VIS 063, sodium p-chlorophenyl phenoxycarbonylphosphonate]",Inhibition (%),[5]; 5 μM test compound,~ 50%
same,Inhibition (%),[5]; 10 μM test compound,> 90%
same,Inhibition (%),[5]; 20 μM test compound,69%
same,Inhibition (%),[5]; 100 μM test compound,> 99.9%
same,Inhibition (%),[5]; 500 μM test compound,> 99.9%
same,Inhibition (%),[3]; 100 μM test compound,72%
same,Inhibition (%),[3]; 500 μM test compound,> 99.9%
same,"Score at day 5, treated",[4]; [9],2 and 3
"Cc1ccc(OP(=O)([O-])C(=O)Oc2ccccc2)cc1.[Na+] [VIS 065, sodium p-tolyl phenoxycarbonylphosphonate]",Inhibition (%),[5]; 10 μM test compound,~ 50%
same,Inhibition (%),[5]; 20 μM test compound,> 90%
same,Inhibition (%),[6]; 200 μM test compound,76%
same,Inhibition (%),[6]; 500 μM test compound,> 99%
"O=C(O)P(=O)(O)Oc1ccc(Cl)cc1 [VIS 066, p-chlorophenyl disodium oxycarbonylphosphonate]",Inhibition (%),"[5]; 5 μM test compound, 5 µM",89% and ~ 75%
same,Inhibition (%),[5]; 10 μM test compound,> 90%
same,Inhibition (%),[5]; 20 μM test compound,98%
same,Inhibition (%),[5]; 100 μM test compound,> 99.9%
same,Inhibition (%),[5]; 500 μM test compound,> 99.9%
same,Inhibition (%),[3]; 100 μM test compound,54%
same,Inhibition (%),[3]; 500 μM test compound,> 99.9%
"COc1ccc(OP(=O)(O)C(=O)O)cc1 [VIS 067, p-Methoxyphenyl disodium oxycarbonylphosphonate]",Inhibition (%),[5]; 5 μM test compound,57%
same,Inhibition (%),[5]; 20 μM test compound,87%
same,Inhibition (%),[5]; 100 μM test compound,99%
same,Inhibition (%),[5]; 500 μM test compound,> 99.9%
same,Inhibition (%),[3]; 100 μM test compound,58%
same,Inhibition (%),"[3]; 500 μM test compound, 500 µM",73% and > 99.9%
same,"Score at day 5, treated",[4]; [8],1
"Cc1ccc(OC(=O)P(=O)([O-])[O-])cc1.[Na+].[Na+] [VIS 130, Disodium p-tolyloxycarbonylphosphonate]",inhibition at 200 µM,"[5]; Human alphaherpesvirus 1, 200 μM test compound",~80%
same,inhibition at 400 µM,[5],> 90%
same,"Score at day 5, treated",[4]; [10],1
"O=C(Oc1ccc(Cl)c(Cl)c1)P(=O)(O)O [VIS 135, Disodium 3,4-dichlorophenoxycarbonylphosphonate]",inhibition at 100 µM,"[5]; Human alphaherpesvirus 1, 100 μM test compound",85%
"O=C(Oc1ccc(Cl)cc1)P(=O)([O-])[O-].[Na+].[Na+] [VIS 238, Disodium p-chlorophenoxycarbonylphosphonate]",Inhibition (%),"[5]; 100 μM test compound, 100 µM",52% and ~ 90%
same,Inhibition (%),"[5]; 500 μM test compound, 500 µM",99%
same,inhibition at 500 µM,[5],96%
same,"Score at day 5, treated",[4]; [10],1
"COc1ccc(OC(=O)P(=O)([O-])[O-])cc1.[Na+].[Na+] [VIS 239, Disodium p-methoxyphenoxycarbonylphosphonate]",Inhibition (%),"[5]; 500 μM test compound, 500 µM",36% and 52% and 70%
same,inhibition at 400 µM,[5],~60%
same,inhibition at 600 µM,"[5]; Human alphaherpesvirus 1, 600 μM test compound",> 90%
same,"Score at day 5, treated",[4]; [10],1
"CCOC(=O)c1ccc(OC(=O)P(=O)([O-])[O-])cc1.[Na+].[Na+] [VIS 242, Disodium p-(ethoxycarbonyl)phenoxycarbonylphosphonate]","Score at day 5, treated",[4]; [10],1
"O=C(Oc1ccccc1)P(=O)([O-])[O-].[Na+].[Na+] [VIS 412, Disodium phenoxycarbonylphosphonate]",Inhibition (%),"[5]; 500 μM test compound, 500 µM",88%
same,inhibition at 60 µM,"[5]; Human alphaherpesvirus 1, 60 μM test compound",~50%
same,inhibition at 500 µM,[5],80%
same,"Score at day 5, treated",[4]; [9],0
same,"Score at day 5, treated",[4]; [7],0
"O=C(O)P(=O)(O)Oc1ccc2c(c1)CCC2 [VIS 442, 5-Indanyl disodium oxycarbonylphosphonate]",Inhibition (%),[5]; 10 μM test compound,> 90%
same,Inhibition (%),[5]; 500 μM test compound,> 99.9%
same,Inhibition (%),[3]; 500 μM test compound,94%
same,"Score at day 5, treated",[4]; [10],1
Cc1ccc(OC(=O)P(=O)(O)O)cc1 [drawing 119],Recovered phosphonoformic acid activity in urine,[11],1.25 μmol phosphonoformic acid
same,Recovered phosphonoformic acid activity in urine,[12],0.25 μmol phosphonoformic acid
same,Recovered phosphonoformic acid activity in urine,[13],0.10 μmol phosphonoformic acid
O=C(O)P(=O)(O)Oc1ccccc1 [drawing 120],Recovered phosphonoformic acid activity in urine,[11],1.00 μmol phosphonoformic acid
same,Recovered phosphonoformic acid activity in urine,[12],0.25 μmol phosphonoformic acid
same,Recovered phosphonoformic acid activity in urine,[13],0.25 μmol phosphonoformic acid
"O=C(O)P(=O)(O)O [drawing 121, reference compound]",Recovered phosphonoformic acid activity in urine,"mouse, in vivo, ip",1.25 μmol phosphonoformic acid
O=C(Oc1ccccc1)P(=O)(O)O [drawing 123],number of animals dead 24 hours after injection,[1]; 62.5 mg/kg ip,0/2
same,number of animals dead 24 hours after injection,[1]; 125 mg/kg ip,0/2
same,number of animals dead 24 hours after injection,[1]; 250 mg/kg ip,0/2
same,number of animals dead 24 hours after injection,[1]; 500 mg/kg ip,0/2
O=C(O)P(=O)(O)Oc1ccccc1 [drawing 125],number of animals dead 24 hours after injection,[1]; 62.5 mg/kg ip,0/2
same,number of animals dead 24 hours after injection,[1]; 125 mg/kg ip,0/2
same,number of animals dead 24 hours after injection,[1]; 250 mg/kg ip,0/2
same,number of animals dead 24 hours after injection,[1]; 500 mg/kg ip,0/2
